Data published in patent US20200290950A1, “ALKAMIDE COMPOUNDS AND USES THEREOF” (NORTH CAROLINA STATE UNIVERSITY, priority 2017, published 2020).

Experiments:
RAW 264.7 cells = details: LPS-stimulated RAW 264.7 cells, literature; cited from earlier work
BMMCs = assay: Fluo-4 calcium assay, BMMCs; format: cell-based, mouse
Procedure: FIGS. 3A-3H. A15 inhibits calcium influx in RBL-2H3 cells and BMMCs. RBL-2H3 cells (FIGS. 3A-3D) and BMMCs (FIGS. 3E-3H) were plated and incubated overnight prior to treatments. For DNP-BSA treatments, overnight incubation also included 1 μg/mL IgE anti-DNP. Prior to stimulation, cells were washed and loaded with the fluorescent, calcium-sensitive dye fluo-4 AM using the Fluo-4 AM Direct™ Calcium Assay Kit and fluorescence was measured on a microplate reader. Calcium influx was triggered in all experiments using either 1 μM A23187 or 50 ng/mL DNP-BSA, as indicated. Bar graphs represent the means±SEM of the Δ in RFU's at 1 min post-A23187- or DNP-BSA-stimulation from 3 independent experiments (FIGS. 3B, 3D, 3F, 3H). Statistical analysis was performed using a one-way ANOVA with Dunnett's post-hoc test, *p<0.05, **p<0.01, ***p<0.001.
RBL-2H3, BMMC, RAW 264.7, or Jurkat cells were plated in clear-bottom, black, 96-well plates (BioExpress, Kaysville, Utah) and incubated overnight with media only or media containing IgE anti-DNP. Cells were loaded with the calcium-sensitive dye fluo-4 AM using the Fluo-4 Direct™ Calcium Assay Kit (Thermo Fisher Scientific) according to the manufacturer's instructions by incubating at 37° C. for 30 min followed by 30 min at room temperature. Prior to stimulation, baseline fluorescent readings were measured from triplicate wells in 5 s intervals for 1 min using a Synergy HT microplate reader with 485/20 nm excitation and 528/20 nm emission filters. Cells were then treated with either 1 μM A23187 or 50 ng/mL DNP-BSA prepared in calcium- and magnesium-containing or calcium- and magnesium-free HBSS with 20 mM HEPES, and fluorescence was measured in 10 s intervals for 2 min. The final concentration of ethanol was 0.25% in these assays. The average baseline fluorescence of each well was subtracted from the stimulated fluorescent values to calculate the change (Δ) in RFU's and graphed as shown.

RBL-2H3 cells [1] = assay: β-Hexosaminidase release assay (Example 3); format: cell-based, rat
Procedure: FIGS. 21A-21D. The inhibition of degranulation is dependent on the length of the alkamide fatty acid chain. RBL-2H3 cells were plated overnight, stimulated with 1 μM A23187 (FIG. 21A) or 5 ng/mL DNP-BSA (FIG. 21B) for 1 h in the absence or presence of each compound. Graphs display the mean percent β-hex release. Data are presented as the mean of 4 experiments. Percent inhibition of degranulation of A23187 (FIG. 21C) or DNP-BSA (FIG. 21D) using data from A and B, respectively. *P<0.05, **P<0.01, ***P<0.001, one-way ANOVA with Dunnett's post hoc test compared to vehicle (A, B) or A15 (C, D).
RBL-2H3 cells (1.0×10^5 cells) were incubated with or without 0.1 μg/mL of IgE-DNP overnight in a 96 well plate at 37° C. with 5% CO2. The cells were washed with Tyrode's buffer and assayed with few modifications (Kuehn, Radinger, & Gilfillan, 2010). Briefly, IgE-DNP sensitized cells were stimulated 1 hour with 5 ng/mL of DNP-BSA in the absence or presence of each compound and incubated at 37° C. with 5% CO2. For experiments using only A23187 as the stimulant, cells were washed with Tyrode's buffer and stimulated 1 hour with 1 μM A23187 in the absence or presence of each compound and incubated at 37° C. with 5% CO2. The stimulated cells were centrifuged at 1200×g for 5 minutes. The supernatant or cell lysate (30 μL) was incubated with 3.4 mg/mL of p-NAG (10 μL) for 1 hour at 37° C. The reaction was terminated by addition of 0.2 M sodium carbonate (pH 10) and the absorbance was read at OD405 nm on a BioTek Synergy HT microplate reader. The total 3-hexosaminidase released from the cell was calculated as the difference between the OD of the supernatant and blank plus the difference between the OD of the lysate and blank. The percent β-hexosaminidase released from the cell was calculated as the difference between the OD of the supernatant and blank divided by the total β-hexosaminidase released from the cell multiplied by 100: ODsupernatant−ODblank/[(ODlysate−ODblank)+(ODsupernatant−ODblank)]*100.

RBL-2H3 cells [2] = assay: PGE2 production, EIA, 8 hrs; format: cell-based, rat; details: 1 μM A23187, only at 100 μM
Procedure: FIGS. 6A-6B. A15 inhibits de novo production of TNF-α and PGE2 from RBL-2H3 cells. RBL-2H3 cells were plated and incubated overnight prior to stimulation. Cells were stimulated with 1 μM A23187 in combination with the indicated doses of A15. Supernatants were collected 8 hrs later and TNF-α (FIG. 6A) or PGE2 (FIG. 6B) levels were measured using ELISA kits. Data shown are the means±SEM from 3 independent experiments. Statistical analysis was performed using a one-way ANOVA with Dunnett's post-hoc test, *p<0.05, **p<0.01, ***p<0.001.
Bone marrow cells were isolated from the femurs of 6-8 week old C57BL/6 mice and cultured in RPMI-1640 containing 10% heat-inactivated FBS, non-essential amino acids, HEPES buffer, sodium pyruvate, 100 U/mL penicillin, 100 μg/mL streptomycin, 5 ng/mL mIL-3, and 5 ng/mL mSCF for 4-6 weeks until mature, bone marrow-derived mast cells (BMMCs) were obtained, as described previously (Kuehn et al., 2010). Differentiation into >98% mast cells was confirmed through toluidine blue staining (1%, pH 1). RBL-2H3, RAW 264.7, and Jurkat cells were obtained from the American Type Culture Collection (Manassas, Va.). […] Optical density was determined using a Synergy HT microplate reader (BioTek Instruments, Inc, Winooski, Vt.). […]

**Q.** With `CCCCCCC/C=C/C=C/C(=O)NCC(C)C` [A15, (2E,4E)-N-Isobutyldodeca-2,4-dienamide] as the compound, how does the TNF-α production (RAW 264.7 cells) read?
**A.** best inhibitors

**Q.** And the calcium response (BMMCs; BMMCs treated with A23187)?
**A.** blocked the calcium response

**Q.** And the calcium response (BMMCs; BMMCs treated with IgE anti-DNP and DNP-BSA)?
**A.** blocked the calcium response

**Q.** What about the “calcium response to compound itself” value (BMMCs; BMMCs, A15 alone) of the same compound?
**A.** did not cause a calcium response

**Q.** And the “percent inhibition of degranulation” value (RBL-2H3 cells [1]; 5 ng/mL DNP-BSA, 1 hour)?
**A.** 27%

**Q.** What about the “percent inhibition of degranulation” value (RBL-2H3 cells [1]; 1 μM A23187, 1 hour) of the same compound?
**A.** 47%

**Q.** And the “production of PGE2” value (RBL-2H3 cells [2])?
**A.** weakly inhibited
